Test results taken from patent publication US11504415B2, “Treatment of heart failure with preserved ejection fraction” (Stichting VUmc, priority 2016, dated 2022).
“Also recorded” adds a separate entry of the source.

Experiments:
Format in all cases: cell-based, human
donor cardiomyocytes = assay: Force measurements (Fpassive) in single demembranated donor cardiomyocytes; settings: SL 1.8-2.4 μm; for Fpassive (Fpassive-SL curve) after alkaline phosphatase vs baseline: AP 2000 U/mL, 40 minutes at 20° C.
Protocol: (§1) Force measurements were performed on single demembranated cardiomyocytes (n ranged from 9 to 15 for each group and experimental protocol) as described previously.^4, 5 Cardiomyocytes were isolated from donor, AS, and DCM hearts. Briefly, samples were thawed in relaxing solution (in mmol/L: free Mg, 1; KCl, 100; EGTA, 2; Mg-ATP, 4; imidazole, 10; pH 7.0), mechanically disrupted and incubated for 5 minutes in relaxing solution supplemented with 0.5% TRITON® X-100. The cell suspension was washed 5 times in relaxing solution. Single cardiomyocytes were selected under an inverted microscope and attached with silicone adhesive between a force transducer and a piezoelectric motor. Cardiomyocyte Fpassive was measured in relaxing buffer at room temperature within a sarcomere length (SL) range between 1.8 and 2.4 μm. Force values were normalized to cardiomyocyte cross-sectional area calculated from the diameter of the cells, assuming a cylindrical shape. As a test of cell viability, each cardiomyocyte was also transferred from relaxing to maximally activating solution (pCa4.5), at which isometric force developed. Once a steady state force was reached, the cell was shortened within 1 ms to 80% of its original length to determine baseline force. Only cells developing active forces >20 kN/m^2 were included in the analysis. Thereafter, cardiomyocytes were incubated in relaxing solution supplemented with alkaline phosphatases (AP) (2000 U/mL; New England Biolabs), 6 mmol/L dithiothreitol (MP Biochemicals) for 40 minutes at 20° C. and Fpassive was measured again at SL 1.8-2.4 μm. Subsequently, cardiomyocytes were stretched to ˜2.6 μm SL, incubated in relaxing buffer with pH 6.6, and held in the stretched state for 15 minutes (prestretch). […] Finally, the pH 6.6 buffer was supplemented with recombinant human α-B crystallin at 0.1 mg/ml and Fpassive was measured in the presence of α-B crystallin again at SL 1.8-2.4 μm.

AS cardiomyocytes = assay: Force measurements (Fpassive) in single demembranated aortic stenosis (AS) cardiomyocytes; settings: for Fpassive (Fpassive-SL curve) after alkaline phosphatase vs baseline: AP 2000 U/mL, 40 minutes at 20° C.; for Fpassive (Fpassive-SL curve) after α-B crystallin vs AS baseline: single AS cardiomyocytes
Protocol: Force measurements were performed on single demembranated cardiomyocytes (n ranged from 9 to 15 for each group and experimental protocol) as described previously.^4, 5 Cardiomyocytes were isolated from donor, AS, and DCM hearts. Briefly, samples were thawed in relaxing solution (in mmol/L: free Mg, 1; KCl, 100; EGTA, 2; Mg-ATP, 4; imidazole, 10; pH 7.0), mechanically disrupted and incubated for 5 minutes in relaxing solution supplemented with 0.5% TRITON® X-100. The cell suspension was washed 5 times in relaxing solution. Single cardiomyocytes were selected under an inverted microscope and attached with silicone adhesive between a force transducer and a piezoelectric motor. Cardiomyocyte Fpassive was measured in relaxing buffer at room temperature within a sarcomere length (SL) range between 1.8 and 2.4 μm. Force values were normalized to cardiomyocyte cross-sectional area calculated from the diameter of the cells, assuming a cylindrical shape. As a test of cell viability, each cardiomyocyte was also transferred from relaxing to maximally activating solution (pCa4.5), at which isometric force developed. Once a steady state force was reached, the cell was shortened within 1 ms to 80% of its original length to determine baseline force. Only cells developing active forces >20 kN/m^2 were included in the analysis. Thereafter, cardiomyocytes were incubated in relaxing solution supplemented with alkaline phosphatases (AP) (2000 U/mL; New England Biolabs), 6 mmol/L dithiothreitol (MP Biochemicals) for 40 minutes at 20° C. and Fpassive was measured again at SL 1.8-2.4 μm. Subsequently, cardiomyocytes were stretched to ˜2.6 μm SL, incubated in relaxing buffer with pH 6.6, and held in the stretched state for 15 minutes (prestretch). Thereafter, cardiomyocytes were returned to slack length and stabilized for 5 minutes before recording the Fpassive with an identical stretch protocol from SL 1.8-2.4 μm in the low pH buffer. Finally, the pH 6.6 buffer was supplemented with recombinant human α-B crystallin at 0.1 mg/ml and Fpassive was measured in the presence of α-B crystallin again at SL 1.8-2.4 μm.
In a second set of experiments, single AS cardiomyocytes underwent either incubation at pH 6.6 alone or a prestretch in relaxing buffer with pH 6.6 to ˜2.6 μm SL, followed by the same stretch protocol from SL 1.8-2.4 μm.
Finally, in a third set of experiments, Fpassive was measured in single AS cardiomyocytes from SL 1.8-2.4 μm before and after incubation with α-B crystallin, before and after incubation with α-B crystallin and a prestretch to ˜2.6 μm SL, and before and after incubation with α-B crystallin, a prestretch to ˜2.6 μm SL and incubation at pH 6.6.

DCM cardiomyocytes = assay: Force measurements (Fpassive) in single demembranated dilated cardiomyopathy (DCM) cardiomyocytes; settings: SL 1.8-2.4 μm; for Fpassive (Fpassive-SL curve) after alkaline phosphatase vs baseline: AP 2000 U/mL, 40 minutes at 20° C.
Protocol: as §1

[1] = after AP, prestretch to ~2.6 μm SL in pH 6.6, α-B crystallin 0.1 mg/ml

Molecule: alkaline phosphatase [reference compound]
- Fpassive (Fpassive-SL curve) after alkaline phosphatase vs baseline (donor cardiomyocytes): Fpassive significantly increased; also recorded: the Fpassive-SL curve shifted upward
- Fpassive (Fpassive-SL curve) after alkaline phosphatase vs baseline (donor cardiomyocytes; listed as AP): shifts the diastolic Fpassive-SL relation upward in donor
- Fpassive (Fpassive-SL curve) after alkaline phosphatase vs baseline (AS cardiomyocytes; AS cardiomyocytes, SL 1.8-2.4 μm): the Fpassive-SL curve failed to shift
- Fpassive (Fpassive-SL curve) after alkaline phosphatase vs baseline (AS cardiomyocytes; AS cardiomyocytes, SL 1.8-2.4 μm, listed as AP): no significant change in the Fpassive-SL curve; also recorded: not in AS or DCM cardiomyocytes
- Fpassive (Fpassive-SL curve) after alkaline phosphatase vs baseline (DCM cardiomyocytes): the Fpassive-SL curve failed to shift
- Fpassive (Fpassive-SL curve) after alkaline phosphatase vs baseline (DCM cardiomyocytes; listed as AP): had no effect on the Fpassive-SL curve; also recorded: not in AS or DCM cardiomyocytes

B1: α-B crystallin: recombinant human α-B crystallin; small heat shock protein encoded by the CRYAB gene, SEQ ID NO:1 (protein, listed as Homo sapiens)
chain: MDIAIHHPWIRRPFFPFHSPSRLFDQFFGEHLLESDLFPTSTSLSPFYLRPPSFLRAPSWFDTGLSEMRLEKDRFSVNLDVKHFSPEELKVKVLGDVIEVHGKHEERQDEHGFISREFHRKYRIPADVDPLTITSSLSSDGVLTVNGPRKQVSGPERTIPITREEKPAVTAAPKK
- Fpassive (Fpassive-SL curve) after α-B crystallin (donor cardiomyocytes; [1]): Fpassive normalized again to baseline; also recorded: the curve returned to an intermediate position between baseline and AP; also recorded: coincides with the baseline diastolic Fpassive-SL relation of donor cardiomyocytes
- Fpassive (Fpassive-SL curve) after α-B crystallin (AS cardiomyocytes; AS cardiomyocytes, after AP, prestretch to ~2.6 μm SL in pH 6.6, α-B crystallin 0.1 mg/ml, SL 1.8-2.4 μm): lowered diastolic stiffness well below baseline values; also recorded: dropped Fpassive to a level significantly lower than baseline; also recorded: dropped to a position that was significantly lower than baseline and comparable to the baseline position of donor cardiomyocytes; also recorded: falls below the baseline diastolic Fpassive-SL relation in AS and DCM cardiomyocytes
- Fpassive (Fpassive-SL curve) after α-B crystallin vs AS baseline (AS cardiomyocytes; α-B crystallin alone, no prior intervention (FIG. 6A), SL 1.8-2.4 μm): shifted the diastolic Fpassive-SL relation downward; also recorded: decreased Fpassive significantly; also recorded: shifted the Fpassive-SL curve significantly downward compared to baseline
- Fpassive (Fpassive-SL curve) after α-B crystallin vs AS baseline (AS cardiomyocytes; α-B crystallin and prestretch to ~2.6 μm SL alone (FIG. 6B)): decreased Fpassive significantly as well; also recorded: yielded a similar result
- Fpassive (Fpassive-SL curve) after α-B crystallin vs AS baseline (AS cardiomyocytes; α-B crystallin, prestretch to ~2.6 μm SL and pH 6.6 (FIG. 6C)): decreased Fpassive significantly as well; also recorded: yielded a similar result
- Fpassive (Fpassive-SL curve) after α-B crystallin (DCM cardiomyocytes; [1]): lowered diastolic stiffness well below baseline values; also recorded: Fpassive dropped to a level significantly below baseline; also recorded: fell to a position that was significantly below baseline and comparable to the baseline position of donor cardiomyocytes; also recorded: falls below the baseline diastolic Fpassive-SL relation in AS and DCM cardiomyocytes
